Test results as given in patent US10227323B2, “Glucosylceramide synthase inhibitors for the treatment of diseases” (BIOMARIN PHARMACEUTICAL INC., priority 2013, dated 2019).

Each molecule was assayed against T1, GCS (Canis lupus familiaris, UniProt A0A8I3MXG6) (assay: Assay 1: GCS Enzymatic Assay (MDCK cell lysate, C6-NBD-Ceramide, LC/MS)). Settings: Table 1; MDCK cell lysate; read-out: IC50 (nM) generated from Assay 1.
T1 sequence (A0A8I3MXG6 1-394): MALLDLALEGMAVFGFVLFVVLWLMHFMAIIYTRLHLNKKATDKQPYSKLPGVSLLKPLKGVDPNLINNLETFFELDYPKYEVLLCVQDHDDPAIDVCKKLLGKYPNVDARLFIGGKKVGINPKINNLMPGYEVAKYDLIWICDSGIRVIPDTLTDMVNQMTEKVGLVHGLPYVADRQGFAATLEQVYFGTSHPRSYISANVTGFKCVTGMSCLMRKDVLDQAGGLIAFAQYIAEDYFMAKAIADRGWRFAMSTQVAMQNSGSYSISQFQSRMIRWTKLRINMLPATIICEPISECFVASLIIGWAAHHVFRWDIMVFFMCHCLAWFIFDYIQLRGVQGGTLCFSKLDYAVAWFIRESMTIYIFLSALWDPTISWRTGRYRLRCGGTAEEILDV
Assay type: biochemical, canine
Summary of the method: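 LC/MS/MS measurement of glucosylceramide and NBD-ceramide after a 1 h, 37 °C reaction with 100 μM UDP-glucose and 10 μM C6-NBD-ceramide gave IC50s or percent inhibition.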

Row | Compound | IC50 [nM]
1 | O=C(N[C@H](CN1CCCC1)[C@H](O)c1ccc2c(c1)OCCO2)C(F)(F)c1cc2cc(Cl)ccc2s1 [Compound 3, 2-(5-chlorobenzo[b]thiophen-2-yl)-N-((1R,2R)-1-(2,3-dihydrobenzo[b][1,4]dioxin-6-yl)-1-hydroxy-3-(pyrrolidin-1-yl)propan-2-yl)-2,2-difluoroacetamide] | < 50
2 | O=C(N[C@H](CN1CCCC1)[C@H](O)c1ccc2c(c1)OCCO2)C(F)(F)C1Cc2ccccc2C1 [Compound 1, 2-(2,3-dihydro-1H-inden-2-yl)-N-((1R,2R)-1-(2,3-dihydrobenzo[b][1,4]dioxin-6-yl)-1-hydroxy-3-(pyrrolidin-1-yl)propan-2-yl)-2,2-difluoroacetamide] | < 50
3 | O=C(N[C@H](CN1CCCC1)[C@H](O)c1ccc2c(c1)OCCO2)C(F)(F)C1Cc2cc(Cl)c(Cl)cc2C1 [Compound 7, 2-(5,6-dichloro-2,3-dihydro-1H-inden-2-yl)-N-((1R,2R)-1-(2,3-dihydrobenzo[b][1,4]dioxin-6-yl)-1-hydroxy-3-(pyrrolidin-1-yl)propan-2-yl)-2,2-difluoroacetamide] | < 50

Same assay, conditions: Table 2; data marked by *

Row | Compound | % inhibition generated from Assay 1
4 | CN1CCCc2cc(CCC(F)(F)C(=O)N[C@H](CN3CCCC3)[C@H](O)c3ccc4c(c3)OCCO4)ccc21 [Compound 198, N-((1R,2R)-1-(2,3-dihydrobenzo[b][1,4]dioxin-6-yl)-1-hydroxy-3-(pyrrolidin-1-yl)propan-2-yl)-2,2-difluoro-4-(1-methyl-1,2,3,4-tetrahydroquinolin-6-yl)butanamide] | A* (the compound had a % inhibition of a percent inhibition of greater than or equal to about 50%)
5 | O=C(N[C@H](CN1CCCC1)[C@H](O)c1ccc(OCC(F)(F)F)nc1)C(F)(F)CCc1ccc2cc(F)ccc2c1 [Compound 88, 2,2-difluoro-4-(6-fluoronaphthalen-2-yl)-N-((1R,2R)-1-hydroxy-3-(pyrrolidin-1-yl)-1-(6-(2,2,2-trifluoroethoxy)pyridin-3-yl)propan-2-yl)butanamide] | A* (the compound had a % inhibition of a percent inhibition of greater than or equal to about 50%)
6 | CC1(C)CCc2cc([C@@H](O)[C@@H](CN3CCCC3)NC(=O)C(F)(F)c3cc4cc(Cl)ccc4o3)ccc2O1 [Compound 119, 2-(5-chlorobenzofuran-2-yl)-N-((1R,2R)-1-(2,2-dimethylchroman-6-yl)-1-hydroxy-3-(pyrrolidin-1-yl)propan-2-yl)-2,2-difluoroacetamide] | A* (the compound had a % inhibition of a percent inhibition of greater than or equal to about 50%)
7 | CC(C)Oc1cc(C(O)[C@@H](CN2CCCC2)NC(=O)C(F)(F)c2cc3cc(Cl)ccc3o2)ccn1 (stereo in doubt) [Compound 103, 2-(5-chlorobenzofuran-2-yl)-2,2-difluoro-N-((1S,2R)-1-hydroxy-1-(2-isopropoxypyridin-4-yl)-3-(pyrrolidin-1-yl)propan-2-yl)acetamide] | B* (the compound had a % inhibition of greater than or equal to about 3% but less than about 50%)

Same assay, conditions: Table 2; data without asterisk; read-out: IC50 (nM) generated from Assay 1

Row | Compound | IC50 [nM]
8 | O=C(N[C@H](CN1CCCC1)[C@H](O)c1ccc(OC2CCCC2)c(Cl)c1)C(=O)c1ccc(-c2ccc(F)cc2)cc1 [Example 309, N-((1R,2R)-1-(3-chloro-4-(cyclopentyloxy)phenyl)-1-hydroxy-3-(pyrrolidin-1-yl)propan-2-yl)-2-(4′-fluoro-[1,1′-biphenyl]-4-yl)-2-oxoacetamide] | < 50
9 | Cn1ncc2ccc(-c3ccc(C(F)(F)C(=O)N[C@H](CN4CCCC4)[C@H](O)c4cc(F)c5c(c4)OCCO5)cc3)cc21 [Compound 236, 2,2-difluoro-N-((1R,2R)-1-(8-fluoro-2,3-dihydrobenzo[b][1,4]dioxin-6-yl)-1-hydroxy-3-(pyrrolidin-1-yl)propan-2-yl)-2-(4-(1-methyl-1H-indazol-6-yl)phenyl)acetamide] | < 50
10 | O=C(N[C@H](CN1CCCC1)[C@H](O)c1ccc2c(c1)OCCO2)/C(=N/O)c1ccc(-c2ccc(F)cc2)s1 [Compound 181, (Z)-N-((1R,2R)-1-(2,3-dihydrobenzo[b][1,4]dioxin-6-yl)-1-hydroxy-3-(pyrrolidin-1-yl)propan-2-yl)-2-(5-(4-fluorophenyl)thiophen-2-yl)-2-(hydroxyimino)acetamide] | < 50
11 | O=C(N[C@H](CN1CCCC1)[C@H](O)c1ccc(OC2CC2)c(Cl)c1)C(=O)c1ccc(N2CCC2)cc1 [Compound 375, 2-(4-(azetidin-1-yl)phenyl)-N-((1R,2R)-1-(3-chloro-4-cyclopropoxyphenyl)-1-hydroxy-3-(pyrrolidin-1-yl)propan-2-yl)-2-oxoacetamide] | 50 to 5000
12 | Cn1ncc2cc(C(=O)C(=O)N[C@H](CN3CCCC3)[C@H](O)c3cc(F)c4c(c3)OCCO4)ccc21 [Compound 217, N-((1R,2R)-1-(8-fluoro-2,3-dihydrobenzo[b][1,4]dioxin-6-yl)-1-hydroxy-3-(pyrrolidin-1-yl)propan-2-yl)-2-(1-methyl-1H-indazol-5-yl)-2-oxoacetamide] | < 50
13 | O=C(N[C@H](CN1CCCC1)[C@H](O)c1cc(F)c2c(c1)OCCO2)C(F)(F)c1ccc(-c2ccccn2)cc1 [Compound 187, 2,2-difluoro-N-((1R,2R)-1-(8-fluoro-2,3-dihydrobenzo[b][1,4]dioxin-6-yl)-1-hydroxy-3-(pyrrolidin-1-yl)propan-2-yl)-2-(4-(pyridin-2-yl)phenyl)acetamide] | < 50
14 | O=C(N[C@H](CN1CCCC1)[C@H](O)c1cc(F)c2c(c1)OCCO2)C(F)(F)c1cccc(Oc2ccc(F)cc2)c1 [Compound 210, 2,2-difluoro-N-((1R,2R)-1-(8-fluoro-2,3-dihydrobenzo[b][1,4]dioxin-6-yl)-1-hydroxy-3-(pyrrolidin-1-yl)propan-2-yl)-2-(3-(4-fluorophenoxy)phenyl)acetamide] | < 50
15 | CC(C)n1ncc2ccc(-c3ccc(C(=O)C(=O)N[C@H](CN4CCCC4)[C@H](O)c4ccc(OC5CC5)c(Cl)c4)cc3)cc21 [Compound 256, N-((1R,2R)-1-(3-chloro-4-cyclopropoxyphenyl)-1-hydroxy-3-(pyrrolidin-1-yl)propan-2-yl)-2-(4-(1-isopropyl-1H-indazol-6-yl)phenyl)-2-oxoacetamide] | < 50
16 | O=C(N[C@H](CN1CCCC1)[C@H](O)c1cc(F)c2c(c1)OCCO2)C(=O)c1ccc(-c2ccc(Cl)cc2)cc1 [Example 272, 2-(4′-chloro-[1,1′-biphenyl]-4-yl)-N-((1R,2R)-1-(8-fluoro-2,3-dihydrobenzo[b][1,4]dioxin-6-yl)-1-hydroxy-3-(pyrrolidin-1-yl)propan-2-yl)-2-oxoacetamide] | < 50
17 | CC(C)Oc1ccc(C(O)[C@@H](CN2CCCC2)NC(=O)C(F)(F)c2cc3cc(Cl)ccc3o2)cn1 (stereo in doubt) [Compound 80, 2-(5-chlorobenzofuran-2-yl)-2,2-difluoro-N-((1S,2R)-1-hydroxy-1-(6-isopropoxypyridin-3-yl)-3-(pyrrolidin-1-yl)propan-2-yl)acetamide] | 50 to 5000
18 | O=C(N[C@H](CN1CCCC1)[C@H](O)c1cc(F)c2c(c1)OCCO2)C(=O)N1CCN(c2ccc(F)cc2)CC1 [Compound 254, N-((1R,2R)-1-(8-fluoro-2,3-dihydrobenzo[b][1,4]dioxin-6-yl)-1-hydroxy-3-(pyrrolidin-1-yl)propan-2-yl)-2-(4-(4-fluorophenyl)piperazin-1-yl)-2-oxoacetamide] | < 50
19 | CC(C)n1ccc2cc(-c3ccc(C(=O)C(=O)N[C@H](CN4CCCC4)[C@H](O)c4cc(F)c5c(c4)OCCO5)cc3)ccc21 [Example 269, N-((1R,2R)-1-(8-fluoro-2,3-dihydrobenzo[b][1,4]dioxin-6-yl)-1-hydroxy-3-(pyrrolidin-1-yl)propan-2-yl)-2-(4-(1-isopropyl-1H-indol-5-yl)phenyl)-2-oxoacetamide] | < 50
20 | O=C(N[C@H](CN1CCCC1)[C@H](O)c1ccc2c(c1)OCCO2)/C(CCc1ccc2cc(F)ccc2c1)=N/O [Compound 106, (E)-N-((1R,2R)-1-(2,3-dihydrobenzo[b][1,4]dioxin-6-yl)-1-hydroxy-3-(pyrrolidin-1-yl)propan-2-yl)-4-(6-fluoronaphthalen-2-yl)-2-(hydroxyimino)butanamide] | < 50
21 | Cc1c2ccc(-c3ccc(C(=O)C(=O)N[C@H](CN4CCCC4)[C@H](O)c4cc(F)c5c(c4)OCCO5)cc3)cc2nn1C [Example 342, 2-(4-(2,3-dimethyl-2H-indazol-6-yl)phenyl)-N-((1R,2R)-1-(8-fluoro-2,3-dihydrobenzo[b][1,4]dioxin-6-yl)-1-hydroxy-3-(pyrrolidin-1-yl)propan-2-yl)-2-oxoacetamide] | < 50
22 | CC(C)n1cc2ccc(C(=O)C(=O)N[C@H](CN3CCCC3)[C@H](O)c3ccc(OC4CC4)c(Cl)c3)cc2n1 [Example 316, N-((1R,2R)-1-(3-chloro-4-cyclopropoxyphenyl)-1-hydroxy-3-(pyrrolidin-1-yl)propan-2-yl)-2-(2-isopropyl-2H-indazol-6-yl)-2-oxoacetamide] | < 50

Same assay, conditions: Table 3; MDCK cell lysate; read-out: IC50 (nM) generated from Assay 1

Row | Compound | IC50 [nM]
23 | O=C(N[C@H](CN1CCCC1)[C@H](O)c1ccc(OC(F)F)cc1)C(=O)c1cc2ccc(Cl)cc2s1 [Example 405, 2-(6-chlorobenzo[b]thiophen-2-yl)-N-((1R,2R)-1-(4-(difluoromethoxy)phenyl)-1-hydroxy-3-(pyrrolidin-1-yl)propan-2-yl)-2-oxoacetamide] | 50 to 5000
